“And” between values parts separate entries of the source, which are not always exact repeats. Equal values may be shown once. Read-outs that look alike come from different tables or passages of the source.
How the values were obtained:
HEK293T cells = experiment: Drug sensitivity assay (CellTiter-Glo viability) with or without MLN4924 pretreatment; assay type: cell-based, human; conditions: Supplementary Table 2; for EC50: Homo sapiens, HEK-293T, HEK293T viability, 72 h, compound alone, read-out: Cellular assays EC50; for Toxicity rescue: MLN4924-mediated cytotoxicity rescue, 10 µM used where n.d.
Method in brief: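 Viability of HEK293T–Cas9 cells was compared after 3-day drug treatment with or without 100 nM MLN4924 pretreatment (2 h, versus DMSO). Values are CellTiter-Glo signals relative to DMSO controls.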

CDK12–cyclin K and DDB1 = molecular target: T1, CDK12–cyclin K and DDB1 (Homo sapiens, UniProt Q16531+Q9NYV4, K965R); experiment: TR-FRET ternary complex formation assay (compound titration); assay type: binding; conditions: for fold lower affinity than DS11: TR-FRET complex formation; for TR-FRET signal at compound concentration: replicate titrations
T1 construct: His6–CDK12 (a.a. 713–1,052); full-length or beta-propeller B domain deletion (ΔBPB: a.a. 396–705 deleted) constructs of His6–DDB1ΔBPB, StrepII–Avi–DDB1, or His6–Spy–DDB1; made in house; host or cells: Trichoplusia ni High Five insect cells (baculovirus)
Method in brief: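 Delayed (70 μs) time-resolved read; FRET computed as 520 nm over 490 nm emission.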

[1] = tested on: cyclin K–eGFP degradation reporter; experiment: Cyclin K reporter stability analysis (dual-color cyclin K–eGFP reporter); assay type: cell-based, human; conditions: Supplementary Table 2; HEK293T cycK-eGFP reporter, 5 h; read-out: Cellular assays DC50
Method in brief: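 Values reflect cyclin K–eGFP levels after a 5 h exposure, expressed as the green-to-red fluorescence ratio and scaled to three vehicle-treated controls. Measurements came from HEK293T–Cas9 reporter cells by flow cytometry.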

[2] = compound concentration 79.2001 nM
[3] = compound concentration 158.4 nM
[4] = compound concentration 309.6 nM
[5] = compound concentration 626.401 nM
[6] = compound concentration 1252.8 nM
[7] = compound concentration 9936.01 nM
[8] = compound concentration 20016 nM
[9] = in vitro complex formation, 50 nM CDK12–cyclin K, 100 nM DDB1, text and figures, read-out: TR-FRET EC50
[10] = Supplementary Table 2, read-out: TR-FRET EC50 TR-FRET
[11] = sheet MOESM7, read-out: log TR-FRET EC50 (converted)

T1 sequence (Q9NYV4 713-1052 K965R): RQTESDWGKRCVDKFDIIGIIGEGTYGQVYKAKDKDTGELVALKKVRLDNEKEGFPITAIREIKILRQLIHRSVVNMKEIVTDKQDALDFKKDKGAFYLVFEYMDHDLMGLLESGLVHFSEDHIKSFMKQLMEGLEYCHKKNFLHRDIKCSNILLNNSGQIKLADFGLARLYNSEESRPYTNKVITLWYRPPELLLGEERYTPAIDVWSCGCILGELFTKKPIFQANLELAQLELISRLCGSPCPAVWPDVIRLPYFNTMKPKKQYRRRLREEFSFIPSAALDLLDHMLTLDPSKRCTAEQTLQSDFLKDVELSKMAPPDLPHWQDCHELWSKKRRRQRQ
T1 sequence (O75909 1-267 partner): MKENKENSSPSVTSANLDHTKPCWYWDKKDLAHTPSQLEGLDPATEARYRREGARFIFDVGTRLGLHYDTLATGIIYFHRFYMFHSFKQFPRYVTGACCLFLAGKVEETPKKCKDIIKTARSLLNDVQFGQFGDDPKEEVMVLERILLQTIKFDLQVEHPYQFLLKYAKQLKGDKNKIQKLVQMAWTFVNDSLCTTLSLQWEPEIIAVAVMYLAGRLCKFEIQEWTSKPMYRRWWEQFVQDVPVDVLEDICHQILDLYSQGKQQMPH
T1 sequence (Q16531 whole entry): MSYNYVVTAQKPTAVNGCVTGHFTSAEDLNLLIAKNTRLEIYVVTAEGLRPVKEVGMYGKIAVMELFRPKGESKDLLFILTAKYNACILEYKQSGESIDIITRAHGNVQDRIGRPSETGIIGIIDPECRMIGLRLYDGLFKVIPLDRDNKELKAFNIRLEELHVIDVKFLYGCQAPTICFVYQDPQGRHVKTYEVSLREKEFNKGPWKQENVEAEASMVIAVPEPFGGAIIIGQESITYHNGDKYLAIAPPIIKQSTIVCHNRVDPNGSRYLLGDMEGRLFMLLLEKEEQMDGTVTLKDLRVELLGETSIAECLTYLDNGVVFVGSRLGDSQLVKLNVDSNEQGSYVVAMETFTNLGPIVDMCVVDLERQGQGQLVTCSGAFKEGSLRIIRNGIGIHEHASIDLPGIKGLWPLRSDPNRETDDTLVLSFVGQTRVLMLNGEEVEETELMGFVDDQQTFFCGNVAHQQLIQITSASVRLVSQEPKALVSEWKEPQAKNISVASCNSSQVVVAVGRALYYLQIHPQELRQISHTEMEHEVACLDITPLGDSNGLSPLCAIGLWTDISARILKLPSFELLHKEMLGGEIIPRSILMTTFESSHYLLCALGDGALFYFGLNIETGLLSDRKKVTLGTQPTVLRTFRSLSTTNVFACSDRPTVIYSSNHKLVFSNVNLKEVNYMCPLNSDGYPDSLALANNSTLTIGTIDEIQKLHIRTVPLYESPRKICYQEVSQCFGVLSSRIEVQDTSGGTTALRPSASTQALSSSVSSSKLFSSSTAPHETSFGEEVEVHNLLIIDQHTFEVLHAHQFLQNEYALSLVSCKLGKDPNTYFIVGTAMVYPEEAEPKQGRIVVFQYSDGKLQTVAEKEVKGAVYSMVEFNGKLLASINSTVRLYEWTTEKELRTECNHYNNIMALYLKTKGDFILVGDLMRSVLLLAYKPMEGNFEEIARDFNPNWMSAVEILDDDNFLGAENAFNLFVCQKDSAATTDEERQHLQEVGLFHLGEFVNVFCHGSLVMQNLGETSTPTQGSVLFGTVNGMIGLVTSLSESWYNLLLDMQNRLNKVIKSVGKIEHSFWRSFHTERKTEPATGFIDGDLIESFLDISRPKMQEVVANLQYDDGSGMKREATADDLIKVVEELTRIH

| Structure (SMILES) | fold lower affinity than DS11 (CDK12–cyclin K and DDB1) | TR-FRET signal at compound concentration (CDK12–cyclin K and DDB1; compound concentration 4.68 nM) | TR-FRET signal at compound concentration (CDK12–cyclin K and DDB1; compound concentration 21.6 nM) | TR-FRET signal at compound concentration (CDK12–cyclin K and DDB1; compound concentration 36 nM) | TR-FRET signal at compound concentration (CDK12–cyclin K and DDB1; [2]) | TR-FRET signal at compound concentration (CDK12–cyclin K and DDB1; [3]) | TR-FRET signal at compound concentration (CDK12–cyclin K and DDB1; [4]) | TR-FRET signal at compound concentration (CDK12–cyclin K and DDB1; [5]) | TR-FRET signal at compound concentration (CDK12–cyclin K and DDB1; [6]) | TR-FRET signal at compound concentration (CDK12–cyclin K and DDB1; compound concentration 2448 nM) | TR-FRET signal at compound concentration (CDK12–cyclin K and DDB1; [7]) | TR-FRET signal at compound concentration (CDK12–cyclin K and DDB1; [8]) | EC50 (CDK12–cyclin K and DDB1; [9]) [nM] | DC50 [1] [nM] | EC50 (CDK12–cyclin K and DDB1; [10]) [nM] | TR-FRET signal, individual replicate (CDK12–cyclin K and DDB1; compound concentration 4.68 nM) | TR-FRET signal, individual replicate (CDK12–cyclin K and DDB1; compound concentration 21.6 nM) | EC50 (CDK12–cyclin K and DDB1; [11]) [nM] | EC50 (HEK293T cells) [nM] | Toxicity rescue (HEK293T cells) [%] | further results |
| --- | --- | --- | --- | --- | --- | --- | --- | --- | --- | --- | --- | --- | --- | --- | --- | --- | --- | --- | --- | --- | --- |
| CC[C@H](CO)Nc1nc(NCCc2ccccc2)c2ncn(C(C)C)c2n1 [DS31] | 12-22 fold | 0.211 and 0.2282 | 0.2112 and 0.2225 | 0.2194 and 0.2418 | 0.2283 and 0.2565 | 0.2533 and 0.2816 | 0.2963 and 0.3231 | 0.3477 and 0.3849 | 0.4331 and 0.4555 | 0.5457 and 0.5736 | 0.6887 and 0.7282 | 0.6557 and 0.645 | 1230 ± 134 | > 10000 |  |  |  |  | > 10000 | 0 |  |
| CC[C@H](CO)Nc1nc(NCCCC2CCCCC2)c2ncn(C(C)C)c2n1 [DS32] | ten-fold |  |  |  |  |  |  |  |  |  |  |  |  | > 10000 | 676 | 0.2147 and 0.2508 | 0.2391 and 0.2736 | 676 | > 10000 | 0 | TR-FRET signal, individual replicate (CDK12–cyclin K and DDB1; compound concentration 36 nM): 0.287 and 0.3299; TR-FRET signal, individual replicate (CDK12–cyclin K and DDB1; [2]): 0.3607 and 0.4271; TR-FRET signal, individual replicate (CDK12–cyclin K and DDB1; [3]): 0.4885 and 0.5801; TR-FRET signal, individual replicate (CDK12–cyclin K and DDB1; [4]): 0.7088 and 0.8235; TR-FRET signal, individual replicate (CDK12–cyclin K and DDB1; [5]): 1.016 and 1.206; TR-FRET signal, individual replicate (CDK12–cyclin K and DDB1; [6]): 1.37 and 1.584; TR-FRET signal, individual replicate (CDK12–cyclin K and DDB1; compound concentration 2448 nM): 1.698 and 1.9826; TR-FRET signal, individual replicate (CDK12–cyclin K and DDB1; [7]): 1.942 and 2.207; TR-FRET signal, individual replicate (CDK12–cyclin K and DDB1; [8]): 1.955 and 2.01 |
| CC[C@H](CO)Nc1nc(NCCCC2CCCC2)c2ncn(C(C)C)c2n1 [DS33] |  |  |  |  |  |  |  |  |  |  |  |  |  | > 10000 | 1270 | 0.2064 and 0.239 | 0.2251 and 0.2479 | 1270 | > 10000 | 0 | TR-FRET signal, individual replicate (CDK12–cyclin K and DDB1; compound concentration 36 nM): 0.2332 and 0.272; TR-FRET signal, individual replicate (CDK12–cyclin K and DDB1; [2]): 0.2704 and 0.303; TR-FRET signal, individual replicate (CDK12–cyclin K and DDB1; [3]): 0.3276 and 0.3592; TR-FRET signal, individual replicate (CDK12–cyclin K and DDB1; [4]): 0.4277 and 0.464; TR-FRET signal, individual replicate (CDK12–cyclin K and DDB1; [5]): 0.5723 and 0.6562; TR-FRET signal, individual replicate (CDK12–cyclin K and DDB1; [6]): 0.7875 and 0.9047; TR-FRET signal, individual replicate (CDK12–cyclin K and DDB1; compound concentration 2448 nM): 1.007 and 1.15; TR-FRET signal, individual replicate (CDK12–cyclin K and DDB1; [7]): 1.305 and 1.477; TR-FRET signal, individual replicate (CDK12–cyclin K and DDB1; [8]): 1.367 and 1.47 |

Second part, led by results:

| fold lower affinity than DS11 (CDK12–cyclin K and DDB1) | TR-FRET signal at compound concentration (CDK12–cyclin K and DDB1; compound concentration 4.68 nM) | TR-FRET signal at compound concentration (CDK12–cyclin K and DDB1; compound concentration 21.6 nM) | TR-FRET signal at compound concentration (CDK12–cyclin K and DDB1; compound concentration 36 nM) | TR-FRET signal at compound concentration (CDK12–cyclin K and DDB1; [2]) | TR-FRET signal at compound concentration (CDK12–cyclin K and DDB1; [3]) | TR-FRET signal at compound concentration (CDK12–cyclin K and DDB1; [4]) | TR-FRET signal at compound concentration (CDK12–cyclin K and DDB1; [5]) | TR-FRET signal at compound concentration (CDK12–cyclin K and DDB1; [6]) | TR-FRET signal at compound concentration (CDK12–cyclin K and DDB1; compound concentration 2448 nM) | TR-FRET signal at compound concentration (CDK12–cyclin K and DDB1; [7]) | TR-FRET signal at compound concentration (CDK12–cyclin K and DDB1; [8]) | EC50 (CDK12–cyclin K and DDB1; [9]) [nM] | DC50 [1] [nM] | EC50 (CDK12–cyclin K and DDB1; [10]) [nM] | TR-FRET signal, individual replicate (CDK12–cyclin K and DDB1; compound concentration 4.68 nM) | TR-FRET signal, individual replicate (CDK12–cyclin K and DDB1; compound concentration 21.6 nM) | EC50 (CDK12–cyclin K and DDB1; [11]) [nM] | Structure (SMILES) | EC50 (HEK293T cells) [nM] | Toxicity rescue (HEK293T cells) [%] | further results |
| --- | --- | --- | --- | --- | --- | --- | --- | --- | --- | --- | --- | --- | --- | --- | --- | --- | --- | --- | --- | --- | --- |
|  | 0.2091 and 0.2292 | 0.229 and 0.2555 | 0.2532 and 0.2765 | 0.311 and 0.3352 | 0.3881 and 0.4084 | 0.5012 and 0.4942 | 0.6373 and 0.6895 | 0.7887 and 0.8649 | 0.8803 and 0.974 | 1.0289 and 1.143 | 1.011 and 1.0565 | 603 ± 62 | > 10000 | 603 |  |  | 603 | CC[C@H](CO)Nc1nc(NCCCc2ccco2)c2ncn(C(C)C)c2n1 [DS34] | > 10000 | 0 |  |
|  | 0.1529 and 0.1552 | 0.228 and 0.2468 | 0.3788 and 0.4108 | 0.6173 and 0.6444 | 0.9157 and 0.9758 | 1.283 and 1.333 | 1.6242 and 1.675 | 1.8781 and 1.924 | 2.069 and 2.096 | 2.24 and 2.273 | 2.144 and 2.245 | 246 ± 10 | > 10000 | 246 |  |  | 246 | CC[C@H](CO)Nc1nc(NCCCc2ccnn2C)c2ncn(C(C)C)c2n1 [DS35] | > 10000 | 0 |  |
